This note sets out measurements from patent publication US20120035201A1, “SPIROHETEROCYCLIC PYRROLIDINE DIONE DERIVATIVES USED AS PESTICIDES” (SYNGENTA CROP PROTECTION LLC, priority 2009, published 2012).

Each structure is given as a SMILES string. Bounds are passed on as bounds.

Data set [1] concerns Diabrotica balteata (corn root worm). As to the kind of experiment: Example B5: activity against Diabrotica balteata, larvicide on artificial diet in microtiter plate. It counts as in vivo. The following applies: 120 h, L2 larvae, 5 days, read-out: activity (larval mortality, antifeedant, growth regulation). As to the method:
Activity Against Diabrotica balteata (Corn Root Worm)
(Larvicide, Feeding/Residual Contact Activity, Preventive)
24-well microtiter plate (MTP) with artificial diet is treated with test solutions by pipetting. After drying, the MTP's are infested with larvae (L2)(6-10 per well). After an incubation period of 5 days, samples are checked for larval mortality, antifeedant and growth regulation.

Data set [2] deals with Myzus persicae (green peach aphid). As to the kind of experiment: Example B2: activity against Myzus persicae, pea seedling roots in test solution (systemic/feeding, curative). The conditions noted are these: 144 h, read-out: activity (mortality).
Data set [3] concerns Aphis Craccivora (cowpea aphid). As to the kind of experiment: Example B9: translaminar activity against Aphis craccivora on French bean leaves. It counts as in vivo. The conditions noted are these: 120 h, upper leaf side painted, aphids on lower side, 5 days. As to the method:
Translaminar Activity Against Aphis Craccivora (Cowpea Aphid)
French bean leaves (Phaseolus vulgaris) are infested with about 20 mixed age individuals on the lower leaf side using clip cages. 1 day after the infestation, the upper side of the leaves is treated with the test solution by painting. 5 days later, samples are checked for mortality.

Data set [4] concerns Myzus persicae (green peach aphid). As to the kind of experiment: Example B12: activity against Myzus persicae on sprayed pepper plants (feeding/residual contact). The data set is classed as in vivo. The following applies: 144 h, 6 days.
Data set [5] concerns Thrips tabaci (onion thrips). As to the kind of experiment: Example B4: activity against Thrips tabaci, sprayed sunflower leaf discs (feeding/residual contact, preventive). The conditions noted are these: foliar, 144 h, read-out: activity (mortality).
Data set [6] deals with Aphis Craccivora (cowpea aphid). As to the kind of experiment: Example B15: activity against Aphis craccivora, pea seedling roots in test solution (systemic/feeding). It counts as in vivo. The conditions noted are these: 144 h, roots of infested pea seedlings in test solution, 6 days. The text has this:
Activity Against Aphis Craccivora (Cowpea Aphid)
(§1) (Mixed Population, Systemic/Feeding)
6 days later, samples are checked for mortality. In this test, compounds listed in Table A above show good activity. For example compounds A8, A9, A13 and A14 show an activity of over 80% at a concentration of 25 ppm.

Data set [7] has as its system Nilaparvata lugens (brown rice planthopper). As to the kind of experiment: Example B8: activity against Nilaparvata lugens, larvicide on rice seedlings (feeding/contact). The data set is classed as in vivo. The conditions noted are these: sprayed rice seedlings, N3 nymphs, 6-12 days, read-out: activity (mortality, growth regulation, effects on F1 generation). As to the method: Activity Against Nilaparvata lugens (Brown Rice Planthopper)
(Larvicide, Feeding/Contact)
Rice seedlings are treated with the diluted test solutions in a spray chamber. After drying, they are infested with 20 N3 nymphs (2 replicates). 6-12 days after the treatment samples are checked for mortality, growth regulation, and effects on the F1 generation. In this test, compounds listed in the Table A above show good activity. For example compounds A1, A2, A4, A7, A8, A9, A13 and A14 show an activity of over 80% at a concentration of 400 ppm.

Data set [8] concerns Myzus persicae (green peach aphid). As to the kind of experiment: Example B1: activity against Myzus persicae, sprayed sunflower leaf discs (feeding/residual contact, preventive). The conditions noted are these: foliar, 144 h, read-out: activity (mortality).
For another data set, the system named is pepper plants. As to the kind of experiment: Example B12: plant damage evaluation (phytotoxicity) on sprayed pepper plants. The conditions noted are these: in vivo, 6 days, 200 ppm.
Data set [9] has as its system Tetranychus urticae (two-spotted spider mite). As to the kind of experiment: Example B3: activity against Tetranychus urticae, sprayed bean leaf discs (feeding/residual contact, preventive). The data set is classed as in vivo. The conditions noted are these: foliar, 192 h, mixed population, 8 days, read-out: activity (egg, larval and adult mortality). An excerpt: Activity Against Tetranychus urticae (Two-Spotted Spider Mite)
(Mixed Population, Feeding/Residual Contact Activity, Preventive)
Bean leaf discs on agar in 24-well microtiter plates are sprayed with test solutions. […] 8 days later, discs are checked for egg mortality, larval mortality, and adult mortality. In this test, compounds listed in the Table A above show good activity. In particular compounds A1, A4, A5, A7, A8, A9, A10, A11, A12, A13 and A14 show an activity of over 80% at a concentration of 400 ppm.

The subject of data set [10] is Aphis gossypii (cotton aphid). As to the kind of experiment: Example B11: activity against Aphis gossypii, pea seedling roots in test solution (systemic/feeding). The data set is classed as in vivo. The conditions noted are these: 144 h, roots of infested pea seedlings in test solution, 6 days.
Source text: Activity Against Aphis gossypii (Cotton Aphid)
as §1
6 days later, samples are checked for mortality. In this test, compounds listed in Table A above show good activity.

Data set [11] has as its system cowpea aphid (Aphis craccivora). As to the kind of experiment: Example B13: insecticide seed treatment of sugarbeet seeds, infestation with cowpea aphid. The conditions noted are these: 0.1 mg a.i./seed, infested after 14 days, counted 7 days later. It counts as in vivo. As to the method: Insecticide Seed Treatment
Sugarbeet seeds are treated with test compounds at various rates (mg a.i./seed). The seeds are sown into pots filled with soil. After placing the seeds on the soil surface they are further covered with soil. Before and during the bioassays, the plants are grown under optimal greenhouse conditions. After 14 days, the plants are infested with cowpea aphid (Aphis craccivora) by placing one infested pea seedling containing approximately 150 aphids of a population of mixed developmental stages onto each plant. Seven days after infestation, the number of aphids is counted per plant. Each treatment group is replicated 10 times. Each replicate contains 1 plant.

For data set [12], the system named is Aonidiella Aurantii (red scale). As to the kind of experiment: Example B10: activity against Aonidiella aurantii, dipped potato tubers. It counts as in vivo. The following applies: 200 ppm, 6-8 weeks. The text has this: Activity Against Aonidiella Aurantii (Red Scale)
Treatment of potato tubers by dipping the in the test solution. One day later, tubers are infested with about 50 crawlers. 6-8 weeks after application samples are checked for the number of crawlers of the next generation (compared to the non treated samples). In this test, compounds listed in the Table A above show good activity.

Data set [13] relates to Bemisia tabaci (tobacco white fly). As to the kind of experiment: Example B7: activity against Bemisia tabaci, larvicide on bean plants (contact/feeding). It counts as in vivo. The conditions noted are these: 200 ppm; bean plants with N-2 nymphs sprayed, three weeks. The protocol:
Activity Against Bemisia tabaci (Tobacco White Fly)
(Larvicide, Contact/Feeding)
Bean plants are infested with 20-30 adults that were removed after a 4 day egg-laying period. After another 7 days, bean plants with hatched nymphs (N−2) are treated (2 replicates) with the test solutions in a spray chamber. Three weeks later, samples are checked for number of emerged adults. Efficacy was calculeted by comparing number of emerged adults in treated and non treated samples.

On to `CON1CCC2(CC1)NC(=O)C(Cl)(c1cc(C)c(C)cc1C)C2=O` (stereo not drawn) [A13], for which the mortality at 400 ppm in data set [1], in data set [2], in data set [3], in data set [5], in [7] and in data set [8] was over 80% throughout. The mortality at 400 ppm in [9] was over 80%. The same compound returned a mortality at 200 ppm in data set [4] of at least 80%. Further, the mortality at 25 ppm in [6] is over 80%. Moreover, the “damage to pepper plants (phytotoxicity, 0-100% rating scale)” value in the data set with pepper plants is reported as at most 10%.

As for `CON1CCC2(CC1)NC(=O)C(Cl)(c1c(C)cc(Br)cc1Cl)C2=O` (stereo not drawn) [A7, 3-(4-bromo-2-chloro-6-methyl-phenyl)-3-chloro-8-methoxy-1,8-diaza-spiro[4.5]decane-2,4-dione], the mortality at 400 ppm in data set [2], in data set [3], in [5], in data set [7], in [8] and in [9] was over 80% each time. The compound further gave a mortality at 200 ppm in [4] of at least 80%. The “damage to pepper plants (phytotoxicity, 0-100% rating scale)” value with pepper plants was at most 10%.

`CON1CCC2(CC1)NC(=O)C(F)(c1cc(C)ccc1C)C2=O` (stereo not drawn) [A2, 3-(2,5-dimethyl-phenyl)-3-fluoro-8-methoxy-1,8-diaza-spiro[4.5]decane-2,4-dione]: the mortality at 400 ppm in [5], in data set [7] and in [8] was over 80% in each case.

Turning to `CON1CCC2(CC1)NC(=O)C(Cl)(c1c(C)ccc(Cl)c1C)C2=O` (stereo not drawn) [A10], the mortality at 400 ppm in data set [5], in data set [8] and in data set [9] was over 80% each time.

On to `CON1CCC2(CC1)NC(=O)C(Cl)(c1c(C)cc(C)cc1Cl)C2=O` (stereo not drawn) [A9], for which the mortality at 400 ppm in data set [2], in data set [3], in [5], in data set [7], in [8] and in data set [9] was over 80% throughout. This compound registered a mortality at 25 ppm in data set [6] of over 80%.

As to `CON1CCC2(CC1)NC(=O)C(c1c(C)cc(C)cc1C)([N+](=O)[O-])C2=O` (stereo not drawn) [A16, 8-methoxy-3-nitro-3-(2,4,6-trimethyl-phenyl)-1,8-diaza-spiro[4.5]decane-2,4-dione], the melting point (as a rule, the temperature of the solid-liquid transition) is 136 °C (dec.).

Take `CON1CCC2(CC1)NC(=O)C(Cl)(c1c(Br)cc(C)cc1Br)C2=O` (stereo not drawn) [A18]: the mortality at 400 ppm in [2] and in [8] was over 80% throughout.

Regarding `CON1CCC2(CC1)NC(=O)C(Cl)(c1ccc(Cl)cc1Cl)C2=O` (stereo not drawn) [A3], the mortality at 400 ppm in [2] and in data set [8] was over 80% each time.

For `CON1CCC2(CC1)NC(=O)C(Cl)(c1cc(C)ccc1C)C2=O` (stereo not drawn) [A1, 3-chloro-3-(2,5-dimethyl-phenyl)-8-methoxy-1,8-diaza-spiro[4.5]decane-2,4-dione], the mortality at 400 ppm in data set [1], in data set [2], in data set [5], in data set [7], in data set [8] and in data set [9] was over 80% throughout. The mortality at 25 ppm in [10] is over 80%. In data set [11], the “efficacy in the reduction of aphids compared to untreated control plants” value was “over 80%”. Also, in data set [12], the “activity (number of crawlers of the next generation vs non treated)” value is “over 80%”. Besides, in data set [13], the “activity (efficacy, number of emerged adults vs non treated)” value is listed as “over 80%”.

As for `CON1CCC2(CC1)NC(=O)C(Cl)(c1c(C)cc(C)cc1C)C2=O` (stereo not drawn) [A14], the mortality at 400 ppm in [2], in [3], in data set [5], in [7], in data set [8] and in data set [9] was over 80% each time. The compound also showed a mortality at 25 ppm in data set [6] of over 80%.

For `CON1CCC2(CC1)NC(=O)C(Cl)(c1c(C)cc(Cl)cc1C)C2=O` (stereo not drawn) [A5], the mortality at 400 ppm in data set [2], in data set [5], in data set [8] and in data set [9] was over 80% in each case. Further, the mortality at 200 ppm in data set [4] is at least 80%. In the data set on pepper plants, the “damage to pepper plants (phytotoxicity, 0-100% rating scale)” value is at most 10%.

Regarding `CON1CCC2(CC1)NC(=O)C(Cl)(c1c(C)cc(Br)cc1C)C2=O` (stereo not drawn) [A6], the mortality at 400 ppm in data set [8] is over 80%.

As to `CON1CCC2(CC1)NC(=O)C(Cl)(c1cc(C)c(C)cc1Cl)C2=O` (stereo not drawn) [A12], the mortality at 400 ppm in [1], in data set [2], in data set [5], in data set [8] and in data set [9] was over 80% in each case.

As to `CON1CCC2(CC1)NC(=O)C(Cl)(c1cc(C)c(Cl)cc1C)C2=O` (stereo not drawn) [A11], the mortality at 400 ppm in data set [1], in data set [5], in data set [8] and in [9] was over 80% throughout.

For `CON1CCC2(CC1)NC(=O)C(Cl)(c1c(C)cccc1C)C2=O` (stereo not drawn) [A8], the mortality at 400 ppm in data set [2], in [3], in data set [5], in [7], in data set [8] and in data set [9] was over 80% throughout. Further, the mortality at 200 ppm in data set [4] is at least 80%. The mortality at 25 ppm in data set [6] is over 80%. The “damage to pepper plants (phytotoxicity, 0-100% rating scale)” value with pepper plants was at most 10%.

For `CON1CCC2(CC1)NC(=O)C(Cl)(c1cc(Br)c(C)cc1C)C2=O` (stereo not drawn) [A15], the mortality at 400 ppm in data set [2], in data set [5] and in data set [8] was over 80% throughout.
